These results are taken from publication PMC3632557, “Histatin 5 Resistance of Candida glabrata Can Be Reversed by Insertion of Candida albicans Polyamine Transporter-Encoding Genes DUR3 and DUR31” (PLoS ONE, 2013).

Assay [1] has as its system C. albicans CAI4. As to the kind of experiment: Spermidine uptake rate. In kind it is cell-based, Candida albicans. The following applies: method as in earlier work. An excerpt: (§1) Next, we investigated the role of altered Hst 5 uptake mechanisms between C. albicans and C. glabrata as a probable reason for their differential susceptibilities to Hst 5. C. albicans contains six DUR transporter family members that are responsible for polyamine (spermidine, spermine, and putrescine) uptake. […] C. glabrata CAGL0K03157g product has 54% identity and 71% similarity with C. albicans DUR3 (orf19.781); and C. glabrata CAGL0108613g product has 51% identity and 69% similarity with C. albicans DUR31 (orf19.6656). However, C. glabrata CAGL0K03157g (CaDUR3 homologue) gene product has even higher homology with S. cerevisiae DUR3, having 65% identity and 76% similarity. The in silico predicted function of these C. glabrata proteins is transmembrane transport; however their specific functions remain uncharacterized. […] There were no significant differences in rates of spermidine uptake among the three strains of C. glabrata (0.163±0.015 nanomoles/10^6 cells/min) compared to C. albicans (0.160±0.014 nanomoles/10^6 cells/min); thus showing polyamine transporter activity is equivalent between C. albicans and C. glabrata strains in respect to spermidine.

For assay [2], the system named is C. glabrata Cg10, Cg30, Cg32. As to the kind of experiment: Spermidine uptake rate. In kind it is cell-based, Candida glabrata. To be noted: three strains of C. glabrata; method as in earlier work.
Text: as §1

For assay [3], the system named is C. glabrata strains (ATCC 90030, 2001 and 64677). To be noted: strains completely insensitive even at high concentrations; ref [10]; cited from earlier work. An excerpt:
Histatins are basic histidine-rich proteins secreted in human parotid and submandibular-sublingual saliva in humans and higher primates. Histatin 5 (Hst 5) is a proteolytic cleavage product of the larger Histatin 3 family member, [6]. […] However, ma ...

Assay [4] relates to C. glabrata Cg30 biofilm. As to the kind of experiment: Confocal microscopy of F-Hst 5 in 24 h biofilms. The class given is cell-based, Candida glabrata. To be noted: FITC-labeled Hst 5 31.5 µM, 24 h biofilm. On the procedure:
CAI4, Cg10, Cg30, Cg32, BG14, Cg BG14-CaDUR3, Cg BG14-CaDUR31, and Cg BG14-Empty vector were treated with fluorescein isothiocyanate FITC-labeled Hst 5 (F-Hst 5, synthesized by Genemed Synthesis, Inc.) to observe relative binding and uptake of salivary Hst 5 as described previously. […] Cells grown overnight (A600 = 0.8–1.0) were diluted to obtain 10^6 cells/ml in NaPB. Chambered cover glass slides (Lab-TekII) were coated with concanavalin A (100 µg/ml) for 30 min and washed twice with water. Cells (1×10^6) were fixed on concanavalin A-coated slides for 30 min at room temperature. The plates were then washed twice with 10 mM NaPB followed by addition of 31 µM FITC-Hst 5. Images were captured using a Zeiss LSM 510 Meta Confocal Microscope and Plan Apochromat 63/1.4 (oil) objective. The average fluorescence intensity was calculated using ImageJ software. […] Hst 5 binding to Candida biofilms was analyzed using confocal microscopy on biofilms of CAI4 and Cg30 strains. […] Biofilms were measured using a series of horizontal (x–y) optical sections with a thickness of 0.38 µm taken throughout the full length of the biofilm. […] The total number of F-Hst 5 labeled cells was quantified in CAI4 and Cg30 biofilms manually from three independent stacks originating at the Bottom (2–3 µm), Middle (6–8 µm) or Top (12–16 µm) regions of the biofilm. […]

Assay [5] concerns C. albicans CAI4. As to the kind of experiment: Candidacidal assay (microdilution plate). The following applies: 31 µM Hst 5; 1×10^6 cells, 10 mM NaPB pH 7.2, 30°C, 30 min, colony counts after 48 h; n = 4. In kind it is cell-based, Candida albicans. How it is done: (§2) Candidacidal assays were performed using microdilution plate assays. Briefly, single colonies of C. albicans CAI4, C. glabrata Cg10, Cg30, Cg32, and BG14 strains were inoculated in YPD media; Cg BG14-CaDUR3, Cg BG14-CaDUR31, and Cg BG14-Empty vector were inoculated in YNB media without uridine and grown overnight (A600 = 1.6–1.8). Cells were washed twice with 10 mM sodium phosphate buffer (NaPB) (pH 7.2) and cells (1×10^6) were incubated at 30°C for 30 min with different concentrations of Hst 5. Aliquots of 500 cells were spread onto YPD (WT strains) or YNB - uridine (C. glabrata expressing C. albicans DUR genes) agar plates and incubated for 48 h to visualize surviving colonies. Blocking experiments were performed using cells pre-incubated with β-1,3-glucan monoclonal antibody (Biosupplies) at room temperature for 30 min. All killing assays were performed in triplicate and repeated at least thrice. Percent cell killing was calculated as 1−(number of colonies from suspensions with Hst 5/numbers of colonies from control suspensions)×100.

Assay [6] concerns C. albicans CAI4 biofilm. As to the kind of experiment: Confocal microscopy of F-Hst 5 in 24 h biofilms. The following applies: FITC-labeled Hst 5 31.5 µM, 24 h biofilm. The class given is cell-based, Candida albicans. On the procedure: CAI4, Cg10, Cg30, Cg32, BG14, Cg BG14-CaDUR3, Cg BG14-CaDUR31, and Cg BG14-Empty vector were treated with fluorescein isothiocyanate FITC-labeled Hst 5 (F-Hst 5, synthesized by Genemed Synthesis, Inc.) to observe relative binding and uptake of salivary Hst 5 as described previously. […] Cells grown overnight (A600 = 0.8–1.0) were diluted to obtain 10^6 cells/ml in NaPB. Chambered cover glass slides (Lab-TekII) were coated with concanavalin A (100 µg/ml) for 30 min and washed twice with water. Cells (1×10^6) were fixed on concanavalin A-coated slides for 30 min at room temperature. The plates were then washed twice with 10 mM NaPB followed by addition of 31 µM FITC-Hst 5. Images were captured using a Zeiss LSM 510 Meta Confocal Microscope and Plan Apochromat 63/1.4 (oil) objective. The average fluorescence intensity was calculated using ImageJ software. Confocal images of cells were compared to determine the relative binding and uptake of Hst 5. Hst 5 binding to Candida biofilms was analyzed using confocal microscopy on biofilms of CAI4 and Cg30 strains. Biofilms were formed by addition of 500 µl cells (cultured overnight in YPD at 28°C, then washed and diluted to OD600 = 1.0 in PBS) to each well of culture dishes (MatTek, MA) and incubated at 37°C for 3 h. Non-adherent cells were removed by gentle washing and 500 µl media was added to each well. The dishes were then incubated at 37°C for 24 h to allow biofilm formation. F-Hst 5 (31.5 µM) was added to each well. Biofilms were measured using a series of horizontal (x–y) optical sections with a thickness of 0.38 µm taken throughout the full length of the biofilm. Z-stack images and thickness measurements of biofilms were obtained using AxioVision 4.4 software (Carl Zeiss LSM Micro Imaging). […] The total number of F-Hst 5 labeled cells was quantified in CAI4 and Cg30 biofilms manually from three independent stacks originating at the Bottom (2–3 µm), Middle (6–8 µm) or Top (12–16 µm) regions of the biofilm. Values were plotted using Graphpad Prism 5 software.

For assay [7], the system named is C. glabrata Cg 90032 (Cg32). As to the kind of experiment: Candidacidal assay (microdilution plate). To be noted: Hst 5 up to 31 µM; 10 mM NaPB pH 7.2, 30°C, 30 min, colony counts; n = 4. The class given is cell-based, Candida glabrata. On the procedure:
as §2
On the technique in general: Dilution methods test growth across graded concentrations, often in twofold steps.

The test system of assay [8] is Cg BG14-CaDUR31. As to the kind of experiment: Candidacidal assay (microdilution plate). The class given is cell-based, Candida glabrata. The following applies: Hst 5 60 µM; 10 mM NaPB pH 7.2, 30°C, 30 min, colony counts; n = 3. On the procedure:
as §2

The subject of assay [9] is C. glabrata Cg 90030 (Cg30). As to the kind of experiment: Candidacidal assay (microdilution plate). The class given is cell-based, Candida glabrata. To be noted: Hst 5 up to 31 µM; 10 mM NaPB pH 7.2, 30°C, 30 min, colony counts; n = 4. How it is done:
as §2

Assay [10] has as its system Cg BG14-CaDUR3. As to the kind of experiment: Candidacidal assay (microdilution plate). In kind it is cell-based, Candida glabrata. The following applies: Hst 5 60 µM; 10 mM NaPB pH 7.2, 30°C, 30 min, colony counts; n = 3. On the procedure: as §2
For assay [11], the system named is C. glabrata Cg 931010 (Cg10). As to the kind of experiment: Candidacidal assay (microdilution plate). In kind it is cell-based, Candida glabrata. The following applies: 31 µM Hst 5; 1×10^6 cells, 10 mM NaPB pH 7.2, 30°C, 30 min, colony counts; n = 4. On the procedure:
as §2

The test system of assay [12] is C. glabrata BG14 cells not expressing C. albicans DUR genes. As to the kind of experiment: Candidacidal assay (microdilution plate). The class given is cell-based, Candida glabrata. To be noted: Hst 5 60 µM; 10 mM NaPB pH 7.2, 30°C, 30 min, colony counts; n = 3. On the procedure:
as §2

Regarding `NCCCCNCCCN` [spermidine], the “rate of spermidine uptake” value in assay [1] amounted to 0.160±0.014 nanomoles/10^6 cells/min; in [2], 0.163±0.015 nanomoles/10^6 cells/min.
As a reminder, the IC50 is the concentration needed to halve the response being measured. Regarding Histatin 5 [Hst 5], the IC50 in assay [3] is above 225 µg/mL. Moreover, the “Hst 5 containing cells, total biofilm” value in assay [4] came out at 17%; in [6] it was 28%. Also, the “percentage of Hst 5-labeled cells, bottom regions (2.5 µm)” value in assay [4] was 20%. In addition, in assay [5], the “cell death (killing)” value was found to be 65%. Also, the “percentage of Hst 5 containing cells, bottom regions” value in assay [6] is on record as “≈ 25%”. Besides, the “percentage of Hst 5 positive cells, middle regions (8 µm)” value in [6] was 33%. For the same molecule, the figures for the maximal killing in assay [7] and in [9] were 10% and 8%, respectively. Also, the killing worked out at 55% in [8], 43% in assay [10], 22% in assay [11] and 25% in [12].
